Data taken from PubChem BioAssay AID1996.
In brackets after ≈: the same amount, converted by molar mass.

settings: buffer; pH 7.4; 200.0 µM

SMILES	solubility kinetic
COc1cc(/C=C2\N=C(c3ccccc3)OC2=O)ccc1OC(C)=O	> 50.6 µg/mL
CS(=O)(=O)N(CC(=O)NCC1CCCO1)c1cccc(Cl)c1 (configuration not stated)	> 52 µg/mL
O=C(c1cc(C(=O)N2CCCC2)cc([N+](=O)[O-])c1)N1CCCC1	> 47.6 µg/mL
Cc1ccc(S(=O)(=O)N2CCC3(CC2)OCCO3)cc1	> 44.6 µg/mL
O=C(NCc1ccco1)c1ccc(NS(=O)(=O)c2cccc(F)c2)cc1	> 56.2 µg/mL
O=c1cc(N2CCCC2)c2ccccc2o1	> 32.3 µg/mL
CC1(NS(=O)(=O)c2ccc(Cl)s2)CCS(=O)(=O)C1 (configuration not stated)	> 49.5 µg/mL
Cc1cccc(-n2c(SCC(N)=O)nnc2-c2ccco2)c1	> 47.2 µg/mL
CSc1ccc(NC(=O)/C=C/C(=O)O)cc1	30.8 µg/mL (≈ 130 µM)
O=C(CCc1ccccc1)Nc1ccc2c(c1)OCO2	26.6 µg/mL (≈ 98.8 µM)
Cc1ccc(NC(=O)c2cc(=O)[nH]c3ccccc23)cc1C	< 0.3 µg/mL
Nc1nc(C23CC4CC(CC(Cl)(C4)C2)C3)cs1	8.5 µg/mL (≈ 31.6 µM)
COCc1cc(=O)[nH]c(N2CCN(C(=O)c3ccco3)CC2)n1	> 47.7 µg/mL
CN1CCCN(S(=O)(=O)c2ccccc2)CC1.Cl	39.8 µg/mL
CC(=O)c1cccc(NC(=O)CNC(=O)Cc2ccccc2)c1	43.7 µg/mL (≈ 141 µM)
COc1ccc(-n2c(-c3ccccc3)c[n+]3c2CCC3)cc1.[Br-]	> 55.7 µg/mL
CSc1ccccc1NC(=O)C1CC(c2ccccc2Cl)=NO1 (configuration not stated)	0.8 µg/mL (≈ 2.31 µM)
NC(=O)c1ccc(N2CCN(S(=O)(=O)c3cccs3)CC2)c([N+](=O)[O-])c1	2.3 µg/mL (≈ 5.8 µM)
COc1ccc(CCNC(=O)c2noc(C(C)C)c2[N+](=O)[O-])cc1OC	> 54.5 µg/mL
COc1cc(Nc2ncnc(N)n2)cc(OC)c1OC	> 41.6 µg/mL
COc1cccc(/C=C/C(=O)OCC(=O)NC2CC2)c1OC	24 µg/mL (≈ 78.6 µM)
CC1CN(S(=O)(=O)c2cc(C(=O)N3CCCCC3C)ccc2Cl)CC(C)O1 (configuration not stated)	> 62.2 µg/mL
COc1ccccc1-c1noc(CCCC(=O)NC2CCCC2)n1	44.4 µg/mL (≈ 135 µM)
Cc1cccc(C(=O)Nc2ccc(NC(=O)CN3CCOCC3)cc2)c1	22.7 µg/mL (≈ 64.2 µM)

SMILES	solubility kinetic
COc1cc2c(cc1OC)CN(C(=O)c1oc3ccccc3c1C)CC2	27.2 µg/mL (≈ 77.4 µM)
CCOC(=O)/C(=C\c1ccc(OC)c(OC)c1)C(=O)c1cccnc1	> 51.2 µg/mL
O=C1COc2ccccc2N1Cc1c(F)cccc1Cl	20 µg/mL (≈ 68.6 µM)
COc1cccc(N2CCN(CC(=O)NC(C)c3ccccc3)CC2)c1 (configuration not stated)	45 µg/mL (≈ 127 µM)
O=C(Nc1ccc(F)cc1)Nc1ccc2c(c1)CCC2	< 0.3 µg/mL
N#Cc1cn(-c2cccc(C(F)(F)F)c2)c(=O)[nH]c1=O	> 42.2 µg/mL
COc1ccc(CNC(=O)COC(=O)/C=C/c2ccc(Cl)cc2)cc1	< 0.8 µg/mL
COc1ccc(NCC(=O)Nc2cccc(S(=O)(=O)N3CCCC3)c2)cc1Cl	13.6 µg/mL (≈ 32.1 µM)
CC1CCN(S(=O)(=O)c2ccc([N+](=O)[O-])cc2)CC1	3.2 µg/mL (≈ 11.3 µM)
CCOc1ccc(N2CC(C(=O)NCCc3ccc(F)cc3)CC2=O)cc1 (configuration not stated)	30.8 µg/mL (≈ 83.1 µM)
COc1ccc(CCNC(=O)CCc2ccccc2)cc1OC	> 47 µg/mL
CC1CCN(C(C(=O)O)c2ccccc2)CC1.Cl (configuration not stated)	> 40.5 µg/mL
COC(=O)c1ccc(N2CCN(C(C)=O)CC2)c(NC(=O)c2cccnc2)c1	> 57.4 µg/mL
Cc1c(N2C(=O)CSC2c2ccco2)c(=O)n(-c2ccccc2)n1C (configuration not stated)	> 53.3 µg/mL
Cc1ccc(F)cc1NC(=O)c1cnccn1	> 34.7 µg/mL
O=C(CC1SCCNC1=O)Nc1ccccc1Cl (configuration not stated)	38.6 µg/mL (≈ 136 µM)
O=C(Nc1nsc(-c2ccccc2)n1)c1ccc(F)cc1	32.2 µg/mL (≈ 108 µM)
O=C(/C=C/c1c(F)cccc1Cl)NCc1ccc2c(c1)OCO2	< 0.7 µg/mL
CCN(CC(=O)NC(=O)NC1CCCC1)Cc1ccccc1	> 45.5 µg/mL
Cn1c2ccccc2n2c(=O)cc(-c3ccccc3)c(C#N)c12	< 0.2 µg/mL
CCc1nc(Nc2ccccc2OC)c2oc3ccccc3c2n1.Cl	< 0.3 µg/mL
O=C(c1cc(-c2ccccc2O)on1)N1CCOCC1	> 41.1 µg/mL
Brc1ccc(-c2csc(N3CCCCCC3)n2)cc1	1.2 µg/mL (≈ 3.56 µM)
CC1CC(C)CN(C(=O)C(C)N(C)CC(=O)Nc2ccccc2Cl)C1 (configuration not stated)	> 54.9 µg/mL

SMILES	solubility kinetic
CCOC(=O)NC(=O)/C(C#N)=C/c1ccc(N(C)C)cc1	15.1 µg/mL (≈ 52.6 µM)
COC(=O)c1ccccc1Oc1ccc(NC(=O)CCCl)cc1	> 50.1 µg/mL
COC(=O)c1ccc(N2CCOCC2)c(NC(=O)c2ccco2)c1	2.8 µg/mL (≈ 8.48 µM)
CN1CN(c2cccc([N+](=O)[O-])c2)CN=C1N[N+](=O)[O-]	> 42 µg/mL
O=C(Nc1cccc(Cl)c1)Nc1cccc(C(=O)O)c1	> 43.6 µg/mL
Cc1ccccc1-n1c(=O)n(CCc2ccccc2)c(=O)c2[nH]cnc21	10.8 µg/mL (≈ 31.2 µM)
N#CCC(=O)Nc1ncc(Cc2ccccc2Cl)s1	1 µg/mL (≈ 3.43 µM)
NC(=O)COc1ccc(NC(=O)CC23CC4CC(CC(C4)C2)C3)cc1	8.9 µg/mL (≈ 26 µM)
CC(C(=O)c1ccccc1)[n+]1cccc(C(N)=O)c1.[Br-] (configuration not stated)	> 50.3 µg/mL
COc1cccc(Oc2nc(N)ncc2[N+](=O)[O-])c1	32.3 µg/mL (≈ 123 µM)
CCOc1ccc(NC(=O)N2CCc3ccccc3C2)cc1	3.7 µg/mL (≈ 12.5 µM)
Cl.O=C(NCCCN1CCOCC1)C(=O)c1c[nH]c2ccccc12	> 52.8 µg/mL
COC(=O)c1ccc(COc2cccnc2[N+](=O)[O-])cc1	4.2 µg/mL (≈ 14.6 µM)
O=C(c1cc(-c2ccccc2)nc2ccccc12)N1CCCC1	42 µg/mL (≈ 139 µM)
O=Cc1cn(CC(=O)Nc2ccccc2)c2ccccc12	4.1 µg/mL (≈ 14.7 µM)
CSc1ncccc1C(=O)NCc1nnc2ccccn12	> 44.9 µg/mL
CCOc1ccc(C(C)=O)cc1Cn1ccsc1=N.Cl	> 46.9 µg/mL
CCCN(CC(=O)Nc1cc(C)on1)CC(=O)Nc1ccc(F)c(F)c1F	44.1 µg/mL (≈ 115 µM)
CC(C)[C@H](NS(=O)(=O)c1cccc(C(F)(F)F)c1)C(=O)OCC(=O)NC(=O)NCc1ccco1	13.4 µg/mL (≈ 26.5 µM)
COc1cc(OC)c(C(=O)N2CCCC2)cc1OC	> 39.8 µg/mL
O=C(CSc1ccccc1Cl)N1CCOCC1	> 40.8 µg/mL
CCOC(=O)CSc1nc2cccnc2n1C	> 37.7 µg/mL
COc1ccc(OCC(O)CNC(=O)Nc2cccc3ccccc23)cc1 (configuration not stated)	4.3 µg/mL (≈ 11.7 µM)
Cc1ccc(Nc2nc(N)c([N+](=O)[O-])c(NCCO)n2)cc1	18.7 µg/mL (≈ 61.5 µM)

SMILES	solubility kinetic
Fc1ccc(-c2ncc3ccccn23)cc1	14.3 µg/mL (≈ 67.4 µM)
COc1ccc([N+](=O)[O-])cc1NS(=O)(=O)c1cccc(C(=O)NCCCN2CCCC2=O)c1	> 71.5 µg/mL
CN(C)C(=O)NC1c2ccccc2-c2ccccc21	> 37.8 µg/mL
COc1ccccc1C(=O)NCC(=O)Nc1ccc2c(c1)OCO2	10.5 µg/mL (≈ 32 µM)
COc1ccc(NC(=S)NCCNC(C)=O)cc1	35.4 µg/mL (≈ 132 µM)
CCOC(=O)c1sc(NC(=O)CC(C)c2ccccc2)nc1C (configuration not stated)	< 0.4 µg/mL
O=C(COC(=O)CNC(=O)c1ccccc1)NCc1ccc2c(c1)OCO2	> 55.6 µg/mL
O=C(Nc1cccnc1)c1ccc([N+](=O)[O-])s1	9.9 µg/mL (≈ 39.7 µM)
O=S(=O)(c1ccc(Br)cc1)N1CCCc2ccccc21	1.6 µg/mL (≈ 4.54 µM)
O=C(NC(=S)Nc1ccccc1)C1CCCCC1	0.6 µg/mL (≈ 2.29 µM)
COc1ccccc1CCNC(=O)c1nccnc1C(=O)O	> 45.2 µg/mL
O=C(CN1C(=O)NC(CCc2ccccc2)C1=O)Nc1ccc(F)c(F)c1F (configuration not stated)	4.5 µg/mL (≈ 11.5 µM)
O=C(CSc1ncccn1)NC(=O)NCc1ccco1	40.8 µg/mL (≈ 140 µM)
COc1ccccc1CNC(=O)CCN1C(=O)c2ccccc2C1=O	> 50.8 µg/mL
Cc1ccc(NS(=O)(=O)N2CCOCC2)c(C)c1	> 40.6 µg/mL
CCc1ccccc1N1C(=O)[C@@H]2Cc3ccccc3CN2C1=O	43.1 µg/mL (≈ 141 µM)
O=C(O)c1ccc(NC(=O)C2(c3ccccc3)CCCC2)cc1	> 46.4 µg/mL
O=C(NCc1ccco1)c1cc([N+](=O)[O-])ccc1N1CCOCC1	46.4 µg/mL (≈ 140 µM)
COc1ccc(CNC(=O)COC(=O)c2ccc(Br)c(S(=O)(=O)N3CCOCC3)c2)cc1	34.2 µg/mL (≈ 64.8 µM)
Cc1cc(C)cc(NC(=O)CCN2C(=O)c3ccccc3C2=O)c1	2.5 µg/mL (≈ 7.76 µM)
Cc1c(Cl)cccc1NC(=O)NCc1cccnc1	> 41.4 µg/mL
O=C(Nc1ccccc1N1CCCCC1)c1cccc([N+](=O)[O-])c1	0.7 µg/mL (≈ 2.15 µM)
O=C(COc1ccc([N+](=O)[O-])cc1Cl)Nc1ccc2[nH]c(=O)[nH]c2c1	7.5 µg/mL (≈ 20.7 µM)
O=C(CNC(=O)c1ccc2c(c1)OCO2)NCCOc1ccc(Cl)cc1	13.7 µg/mL (≈ 36.4 µM)

SMILES	solubility kinetic
O=C(/C=C/c1ccccc1)Nc1cccnc1	> 33.6 µg/mL
Cc1ccc2[nH]cc(CCNC(=O)C3CCCO3)c2c1 (configuration not stated)	> 40.9 µg/mL
Cc1cccc(NC(=O)CCN2CCN(C)CC2)c1.Cl	> 44.7 µg/mL
CN(C)CCCCOc1ccccc1F.O=C(O)C(=O)O	17.2 µg/mL
COc1ccccc1C(=O)NC(=O)COC(=O)CNC(=O)c1ccccc1F	> 58.3 µg/mL
O=C1c2ccccc2C(=O)N1OS(=O)(=O)c1ccc(F)cc1	> 48.2 µg/mL
Oc1ccc(N2CCN(Cc3nc4ccccc4[nH]3)CC2)cc1	> 46.3 µg/mL
Cc1cc(=O)[nH]c(SCC(=O)Nc2nc3ccccc3s2)n1	> 49.9 µg/mL
COc1ccc(C(=O)/C=C/Nc2ccc(S(N)(=O)=O)cc2)cc1OC	7.9 µg/mL (≈ 21.8 µM)
CN(C)CCN1C(=O)NC(C)(c2ccc([N+](=O)[O-])cc2)C1=O (configuration not stated)	> 45.9 µg/mL
O=C(NC(O)C(=O)c1ccc(F)cc1)c1ccc(F)cc1 (configuration not stated)	> 43.7 µg/mL
COc1ccc(C(C)NC(=O)Cc2cccs2)cc1OC (configuration not stated)	> 45.8 µg/mL
COCCNC(=O)c1oc2ccc3c(c2c1C)C(O)CC(C)(C)O3 (configuration not stated)	> 50 µg/mL
Cl.O=C(NC12CC3CC(CC(C3)C1)C2)OCCNC1CCCCC1	> 53.5 µg/mL
O=C(COC(=O)c1ccc(Cl)c(Cl)c1)NC1CCCC1	2 µg/mL (≈ 6.33 µM)
O=C(NCc1ccco1)c1ccc(COc2ccccc2[N+](=O)[O-])o1	> 51.3 µg/mL
CN1CCN(c2nc3ccccn3c(=O)c2C=O)CC1.Cl	45 µg/mL
CC1CCN(CC(=O)Nc2ccc3c(c2)OCO3)CC1	> 41.5 µg/mL
O=C(COC(=O)/C=C/c1ccc([N+](=O)[O-])cc1)NCc1ccco1	1.5 µg/mL (≈ 4.54 µM)
Cc1ccccc1C(C)NS(=O)(=O)c1ccc2c(c1)OCCO2 (configuration not stated)	> 50 µg/mL
CC1(C)CC(=O)C=C(Nc2cccc(F)c2)C1	> 35 µg/mL
